Data taken from patent US20230270738A1, “METHODS OF TREATING AGITATION ASSOCIATED WITH ALZHEIMER'S DISEASE” (Avanir Phrmaceuticals Inc., priority 2020, published 2023).
Entries after “also recorded” stand apart in the source; their conditions may differ. Where a name gives a salt, the structure may show the parent alone.

Columns and labels:
[1] = Plasma concentrations of d6-DM, d6-DM metabolites and Q by CYP2D6 metabolizer group; format: in vivo, human; details: for Changes in plasma concentrations from Week 6 to Week 12: all patients combined, sample 0-3 hours after morning dose; for Plasma concentration by CYP2D6 metabolizer group: poor, intermediate, extensive, ultra-rapid metabolizers; for Plasma concentration/exposure in relation to d6-DM dose of AVP-786: AVP-786-28 vs AVP-786-42.63
Method: Plasma samples were separated by centrifugation and frozen at −20° C. until assayed at the analytical unit.

P-glycoprotein = P-glycoprotein (Homo sapiens, UniProt P08183); details: cited from earlier work
sigma-1 receptor = sigma-1 receptor (Homo sapiens, UniProt Q99720); details: cited from earlier work
Chain of sigma-1 receptor (Q99720 whole entry, species assumed): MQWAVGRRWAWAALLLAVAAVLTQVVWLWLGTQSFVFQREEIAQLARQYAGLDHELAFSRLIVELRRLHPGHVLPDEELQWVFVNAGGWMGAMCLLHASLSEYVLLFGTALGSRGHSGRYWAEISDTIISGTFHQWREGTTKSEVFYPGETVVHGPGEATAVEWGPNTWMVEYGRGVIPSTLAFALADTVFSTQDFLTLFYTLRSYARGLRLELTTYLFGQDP

Chain of P-glycoprotein (P08183 whole entry): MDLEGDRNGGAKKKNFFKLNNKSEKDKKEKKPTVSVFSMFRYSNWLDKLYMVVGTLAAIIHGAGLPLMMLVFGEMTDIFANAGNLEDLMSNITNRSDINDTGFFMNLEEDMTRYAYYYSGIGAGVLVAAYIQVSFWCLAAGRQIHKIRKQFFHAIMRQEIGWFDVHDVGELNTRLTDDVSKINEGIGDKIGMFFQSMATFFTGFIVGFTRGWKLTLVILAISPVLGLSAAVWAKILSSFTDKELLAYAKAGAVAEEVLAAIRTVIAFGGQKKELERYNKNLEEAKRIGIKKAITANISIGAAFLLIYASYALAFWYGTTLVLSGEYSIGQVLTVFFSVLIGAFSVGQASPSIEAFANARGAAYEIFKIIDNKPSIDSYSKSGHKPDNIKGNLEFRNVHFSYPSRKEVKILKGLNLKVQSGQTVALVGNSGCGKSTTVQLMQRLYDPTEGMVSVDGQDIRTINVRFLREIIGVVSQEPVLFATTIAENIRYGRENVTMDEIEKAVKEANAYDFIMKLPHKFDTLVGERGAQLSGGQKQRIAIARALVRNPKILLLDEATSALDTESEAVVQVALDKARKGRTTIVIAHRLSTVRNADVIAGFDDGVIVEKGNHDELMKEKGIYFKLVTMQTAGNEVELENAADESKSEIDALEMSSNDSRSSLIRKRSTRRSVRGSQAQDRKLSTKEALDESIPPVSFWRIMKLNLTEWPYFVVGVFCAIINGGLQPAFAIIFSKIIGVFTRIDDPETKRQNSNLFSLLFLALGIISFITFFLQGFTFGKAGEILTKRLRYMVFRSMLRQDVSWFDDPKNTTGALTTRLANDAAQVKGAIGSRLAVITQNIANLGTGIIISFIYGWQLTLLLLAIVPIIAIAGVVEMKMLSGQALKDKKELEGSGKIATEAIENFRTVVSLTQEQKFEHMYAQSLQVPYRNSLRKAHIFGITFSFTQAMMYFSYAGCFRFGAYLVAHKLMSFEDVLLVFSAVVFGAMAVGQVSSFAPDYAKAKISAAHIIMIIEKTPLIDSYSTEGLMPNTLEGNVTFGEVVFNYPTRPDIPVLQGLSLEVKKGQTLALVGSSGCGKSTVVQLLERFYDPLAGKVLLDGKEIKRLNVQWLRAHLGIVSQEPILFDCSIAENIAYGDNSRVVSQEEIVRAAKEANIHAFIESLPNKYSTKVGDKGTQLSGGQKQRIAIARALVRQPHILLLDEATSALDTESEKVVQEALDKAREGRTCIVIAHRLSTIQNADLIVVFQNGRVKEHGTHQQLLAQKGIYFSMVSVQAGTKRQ

| Compound | Changes in plasma concentrations from Week 6 to Week 12 [1] | P-glycoprotein inhibition (P-glycoprotein) | Plasma concentration by CYP2D6 metabolizer group [1] | Plasma concentration/exposure in relation to d6-DM dose of AVP-786 [1] | Plasma concentration/exposure in relation to d6-DM dose of AVP-786 ([1]; hydrobromide) | receptor binding (sigma-1 receptor) |
| --- | --- | --- | --- | --- | --- | --- |
| C=C[C@H]1C[N@@]2CC[C@H]1C[C@@H]2[C@@H](O)c1ccnc2ccc(OC)cc12 [Q, Quinidine, reference compound] | did not appear to be any significant changes |  |  |  |  |  |
| C=C[C@H]1C[N@]2CC[C@@H]1C[C@@H]2[C@@H](O)c1ccnc2ccc(OC)cc12 [Quinidine, quinidine sulfate] |  | P-glycoprotein inhibitor |  |  |  |  |
| [2H]C([2H])([2H])Oc1ccc2c(c1)C13CCCCC1C(C2)NCC3 (centres unmarked) [d3-3-MM, d3-3-methoxymorphinan] | did not appear to be any significant changes |  | highest in the poor and intermediate metabolizer groups and lowest in the ultra-rapid metabolizer group |  |  |  |
| [2H]C([2H])([2H])N1CCC23CCCCC2C1Cc1ccc(O)cc13 (centres unmarked) [d3-DX, d3-dextrorphan] | did not appear to be any significant changes |  | lowest in the poor metabolizer group and highest in the extensive and ultra-rapid metabolizer groups | generally higher; also recorded: increased with the increase in d6-DM dose |  |  |
| [2H]C([2H])([2H])Oc1ccc2c(c1)[C@]13CCCC[C@@H]1[C@H](C2)N(C([2H])([2H])[2H])CC3 [d6-DM, deuterated [d6]-dextromethorphan hydrobromide] | did not appear to be any significant changes |  | highest in the poor and intermediate metabolizer groups and lowest in the ultra-rapid metabolizer group |  | generally higher; also recorded: increased with the increase in d6-DM dose | binds to the sigma-1 receptor |
